Values quoted from earlier work as cited in PMC10046020, “In Silico Screening and Optimization of Cell-Penetrating Peptides Using Deep Learning Methods” (Biomolecules, 2023).

Settings: Spreadsheet S1: 150 CPP and 150 non-CPP peptides collected from CellPPD, MLCPP, CPPsite 2.0, Lifetein and other publications; cited from earlier work
Excerpt: Supplement biomolecules-13-00522-s001.zip/biomolecules-2162660_Supplementary Spreadsheets S1 Test Set.csv, table | column: class || Supplement biomolecules-13-00522-s001.zip/biomolecules-2162660_Supplementary Spreadsheets S2 Train Set.csv, table | column: class

Substance	class (CPP / Non-CPP), Test Set
AAVALLPAVLLALLAKNNLKECGLY	CPP
ACRDRFRRCPADRRLCG	CPP
ACRGRGRGCGRGRGRCG	CPP
ACRGRGRGCGSGSGSCG	CPP
ACRGRGRRCGSGRRSCG	CPP
ACSGRGSGCGSGRGSCG	CPP
ACSGSGSGCGSGSGSCGRRRRRRRR	CPP
ADCKNFFWKTFTSC	Non-CPP
AEQNPIYWARYADWLFTTPLLLLDLALLVDADEGT	CPP
AGCKNFFWKMFTSC	Non-CPP
AGYLLGHINLHHLAHLHHIL	CPP
AGYLLGKTNLKALAALAKKIL	CPP
AHALCLTEFQIKSNRRMKWKKEN	Non-CPP
AHALCLTERQIKSNRRMKWKKEN	Non-CPP
AITFYPFAPNQITCIHE	Non-CPP
AKRGARSTA	CPP
APKRKSGVSK	CPP
APVTGAHMAYVDYWVPCQFTECSGEYVTEEYRKA	Non-CPP
ARFSNPGVWSKVAADIFNMALDTALA	Non-CPP
ARRCSGSGSGCGSGSGSCGRR	CPP
ARRRCSDRFRNCPADEALCGRRR	CPP
ARRRRCSDRFRNCPADEALCGRRRR	CPP
ARRRRCSGSGSGCGSGSGSCGRRRR	CPP
AVNANFGWQDKRFSTFG	Non-CPP
CAETCIYIPCFTEAVGCKCKDKVCYKN	Non-CPP

Substance	class (CPP / Non-CPP), Test Set
CCTGRKKRRQRRR	CPP
CGGGRRRRRRRRRLLLL	CPP
CKYGRKKRRQRRR	CPP
CLGSGEQCVRDTSCCSMSCTNNICF	Non-CPP
CPLDQFECGGDEPG	Non-CPP
CREKAKKLFKKILKKL	CPP
CRKKRRQRRR	CPP
CVCVKTTSLVRPRHI	Non-CPP
CVKLNDGHFMPVLGFGTYAPPEVPRSKALEVTKLA	Non-CPP
DAATARGRGRSAASRPTERPRAPARSASRPRRPVD	CPP
DFDMLRCMLGRVYRPCWQV	Non-CPP
DFDMLRCMLGRVYYPCWQV	Non-CPP
DKLGVWFIWANNASVFHAYHLKC	Non-CPP
DVVRVWFCNRRQKGKR	CPP
DWLKAFYDKVAEKLKEAF	CPP
EILLPNNYNAYESYKYPGMFIALSK	Non-CPP
EILLPNSYNAYESYKYPGMFIALSK	Non-CPP
ELFSPIAIAVLGSCVL	Non-CPP
ELVVLGKLYGRKKRRQRRR	CPP
EMCILIDENDNKIGADTKKNCHLNENIDKGLLHRA	Non-CPP
FDPYALSEHDEERPQNVQSKSRTAELQAEIDDTVGI	Non-CPP
FFLIPKGRRRRRRRRR	CPP
FGCKNFFWKTFTSC	Non-CPP
FITKALGISYGRKKRRQS	Non-CPP
FITKALGISYGRKWRRQC	Non-CPP

Substance	class (CPP / Non-CPP), Test Set
FKCRRWQWRMKKLG	CPP
FKCRRWQWRMKKLGAPSITCVRRAF	CPP
FKCRRWQWRMKKLGKRSKNKGFKEQAKSLLKWILD	CPP
FLAGLIGGLAKML	Non-CPP
FLGALFKVASKVLPSVFCAITKKC	Non-CPP
FLGVVFKLASKVFPAVFGKV	Non-CPP
FLPLFLPKIICVITKKC	Non-CPP
FLPLLAGVVANFLPQIICKIARKC	Non-CPP
FLPVLAGIAAKVVPALFCKITKKC	Non-CPP
FLSFLLGPLIDLISKG	Non-CPP
FQAYPCITAYKVMYID	Non-CPP
FTFGGGYVYFEEYAY	Non-CPP
FVPFFTHSELQKIREKERNKGQ	Non-CPP
FVPIFTHSELQKIREKERNKGQ	Non-CPP
GAPRLVLLFSGKRKSGKDFVTEA	Non-CPP
GCCSHPACNVNNPHICG	Non-CPP
GDCLPHLKLCKENKGCCSKKCKRRGTNIEKRCR	CPP
GFFTLIKAANKLINKTVNKEAGKGGLEIMA	Non-CPP
GGTSSSDAQQSLQSFWPRVM	Non-CPP
GGVCPKILRRCRRDSDCPGACICRGNGYCGSGSD	CPP
GHHSLKITDDPFDVPFPINDDHDS	Non-CPP
GIVEQCCDTPCSLYDPENYCN	Non-CPP
GLFLDTLKGLAGKLLQGLKCIKAGCKP	Non-CPP
GLKKLAELAHKLLKLGC	CPP
GLRKRLRKFRNKIKEKGLRKRLRKFRNKIKEK	CPP

Substance	class (CPP / Non-CPP), Test Set
GMNCSREYAHCTSAYV	Non-CPP
GNGEQREMAVSRLRDCLDRQA	CPP
GRCTKSIPPICFPA	CPP
GRCTKSIPPICWPD	CPP
GRGDGPRRKKKKGPRRKKKKGPRR	CPP
GRKKHRQPPQC	Non-CPP
GRKKRRERRRPPERKC	CPP
GRKKRRQ	CPP
GRKKRRQRRRG	CPP
GWTLHSAGYLLGPHAI	Non-CPP
GWTLNSAGYLLEPHAI	Non-CPP
GWTLNSAGYLNGKFLPLILRKIVTAL	Non-CPP
GWTNLSAGCLLGPPPGFSPFR	Non-CPP
GWTNLSAGYLLGPPPGFSPFR	Non-CPP
GWTNLSAGYLLGPPPGFSPFS	Non-CPP
GWTNLSAQYLLGPPPGFSPFR	Non-CPP
HADGLFTSGYSKLLGQLSARRYLESLI	Non-CPP
HAQKQLSKTSWDFIEGEADDGITYSENIAAFKRIRLR	Non-CPP
HDEFERHAEGEFTSDVSSYLEGQAAKEFIAWLVKGR	Non-CPP
HDEFERHAEGTFTSDVFSYLEGQAAKEFIAWLVKGR	Non-CPP
HSDGIFTDSYSRYRKQMAVKKYLAAVLGKRYKQRVKNK	CPP
HTPGNSNKWKHLQENKKGRPRR	CPP
IAARIFLRSRQHIKLRHL	Non-CPP
IAARIKLRSRQHIKLRHL	Non-CPP
IAARIKLRSRQYIKLRHL	Non-CPP

Substance	class (CPP / Non-CPP), Test Set
ICITRRSICMVTCNKEWPQNRNAHTFLI	Non-CPP
IDLNITMLEDHEFVP	Non-CPP
IHSHWFVMVLKGKAARQRDDLWTHPCFPS	Non-CPP
ILRRRIRKQAHFHSK	Non-CPP
INWLKLGKAIIDAL	Non-CPP
IVMVGDGGVGKSAMTIQFIQSTFV	Non-CPP
KALKKLLAKWAAAKALL	CPP
KDCERRFSRSDQLKRHQRRHTGVKPFQK	CPP
KETWWETWWTEWSQPKKRKV	CPP
KGRKKRRQRRRPPQ	CPP
KKKKKKKKK	CPP
KKKKKKKKLLLLLLLL	Non-CPP
KKKQYTWIHHGVVEVD	Non-CPP
KKLALHALHLLALLWLHLAHLALKK	CPP
KKLSECLKRIGDELDN	Non-CPP
KKLSECLKRIGDELDS	Non-CPP
KKLSECLKRIGVELDS	Non-CPP
KKLSLCLKRIGDELDS	Non-CPP
KKRTLRKNDRKKRC	CPP
KLAAKLALKALKAA	Non-CPP
KLAKLAKKLAKLAK	CPP
KLAKLAKKLAKLAKGGRRRRRRR	CPP

Same assay, conditions: Spreadsheet S2: peptides collected from CellPPD, MLCPP, CPPsite 2.0, Lifetein and other publications; cited from earlier work

Substance	class (CPP / Non-CPP), Train Set
IYLATALAKWALKQGFGGRRRRRRR	CPP
IYLATALAKWALKQGGRRRRRRR	CPP

Same assay, conditions: cited from earlier work

Substance	class (CPP / Non-CPP), Test Set
CARSKNKDC	CPP
CDAGRKQKC	CPP
CRGDKGDPC	CPP
CSKSSDYQC	CPP
CYFQNCPRG	Non-CPP
CYFQNCPVG	Non-CPP
EGGGPQWAVGHFM	Non-CPP
ENGPDQWSKLYP	Non-CPP
FHFHFRFR	CPP
FKMHEN	Non-CPP
FLPFLAKILTGVL	Non-CPP
GSSGMIPFPRV	Non-CPP
HATKSQNINF	CPP
HGVSGHGQHGVHG	Non-CPP
HGWEIHGLLHRA	CPP
HHHHHHHHH	CPP
IKRYLIKR	Non-CPP
IPLVVPLC	CPP
KFFKFFKFFK	CPP
KIWFMNRRMK	Non-CPP
